According to patent US8088791B2, “Antibacterial agents” (Biots Scientific Management Pty Ltd, priority 2006, dated 2012):
Values after ≈ are worked out from the molar mass of the structure shown.

Columns and labels:
[1] = tested on: Staphylococcus aureus ATCC29213; test: Minimum Inhibitory Concentration (MIC) testing, broth microdilution, Staphylococcus aureus; format: cell-based; conditions: Staphylococcus aureus ATCC29213; read-out: Staphylococcus aureus MICs Activity
In short: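 Broth microdilution per NCCLS M7-A5 in Mueller Hinton broth, with compound in 1.6% DMSO and inoculum at OD 0.09 diluted 1:100. Plates incubated 16–20 h at 37°C. MIC is the lowest concentration with no visible growth; scored A ≤8, B 16–64, C >64 μg/ml.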

Bacillus subtilis 168CA = test: Minimum Inhibitory Concentration (MIC) testing, broth microdilution, Bacillus subtilis; format: cell-based; conditions: Bacillus subtilis 168CA; read-out: Bacillus subtilis MICs Activity
In short: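 Broth microdilution followed NCCLS M7-A5, in rich broth such as Mueller Hinton, inoculum at OD 0.09 diluted 1:100, compounds in 1.6% DMSO before inoculum. After 16–20 h at 37 °C, MIC was the lowest concentration without visible growth. Score A: ≦8 μg/ml, B: 16–64 μg/ml, C: >64 μg/ml.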

SMILES | MIC [1] [µg/mL] | MIC (Bacillus subtilis 168CA) [µg/mL] | melting point [°C]
COC(=O)C=CCOc1ccc(F)c(C(N)=O)c1F [Example 179, Methyl 4-[3-(aminocarbonyl)-2,4-difluorophenoxy]-2-butenoate] | > 64 | > 64 | 122 to 123
CCCCCCOc1ccc(F)c(C(N)=O)c1Cl [Example 77, 2-Chloro-6-fluoro-3-(hexyloxy)benzenecarboxamide] | 16 to 64 (≈ 58.5 to 234 µM) | 16 to 64 (≈ 58.5 to 234 µM) | 66 to 68
NC(=O)c1c(F)ccc(OCc2ccc3sccc3c2)c1F [Example 201, 3-(1-Benzothiophen-5-ylmethoxy)-2,6-difluorobenzenecarboxamide] | 16 to 64 (≈ 50.1 to 200 µM) | < 8 | 146 to 148
NC(=O)c1c(F)ccc(OCc2nc3ccc(OC(F)(F)F)cc3s2)c1F [Example 230, 2,6-Difluoro-3-[6-(trifluoromethoxy)-1,3-benzothiazol-2-yl]methoxybenzenecarboxamide] | < 8 | < 8 | 174 to 175
NC(=O)c1cccc(OCCCCC/C=C\c2ccc(Cl)o2)c1 [Example 64, 3-{[(Z)-7-(5-Chloro-2-furyl)-6-heptenyl]oxy}benzenecarboxamide] | < 8 | < 8 | 53 to 56
N#CCOc1ccc(F)c(C(N)=O)c1F [Example 225, 3-(Cyanomethoxy)-2,6-difluorobenzenecarboxamide] | > 64 | > 64 | 122 to 123
COc1ccc2nc(COc3ccc(F)c(C(N)=O)c3F)sc2c1 [Example 224, 2,6-Difluoro-3-[(6-methoxy-1,3-benzothiazol-2-yl)methoxy]benzenecarboxamide] | > 64 | 16 to 64 (≈ 45.7 to 183 µM) | 190 to 192
NC(=O)c1cccc(OCCCCC/C=C\c2ccsc2)c1 [Example 62, 3-{[(Z)-7-(3-Thienyl)-6-heptenyl]oxy}benzenecarboxamide] | < 8 | < 8 | 71 to 73
CC1CC1COc1cccc(C(N)=O)c1 (stereo not drawn) [Example 169, 3-[(2-Methylcyclopropyl)methoxy]benzenecarboxamide] | > 64 | > 64 | 119 to 121

More lines, now with the values ahead:

MIC [1] [µg/mL] | MIC (Bacillus subtilis 168CA) [µg/mL] | melting point [°C] | SMILES
< 8 | 16 to 64 (≈ 40.3 to 161 µM) | 255 to 258 | NC(=O)c1c(F)ccc(OCc2nc3cc(-c4ccncc4)ccc3s2)c1F [Example 232, 2,6-Difluoro-3-[5-(4-pyridinyl)-1,3-benzothiazol-2-yl]methoxybenzenecarboxamide]
16 to 64 (≈ 51.1 to 204 µM) | < 8 | < 40 | CCCCOC(=O)C=CCOc1ccc(F)c(C(N)=O)c1F [Example 180, Butyl 4-[3-(aminocarbonyl)-2,4-difluorophenoxy]-2-butenoate]
< 8 | < 8 | 106 to 108 | C#CCCCCCCCCCCOc1cccc(C(N)=O)c1 [Example 66, 3-(11-Dodecynyloxy)benzenecarboxamide]
< 8 | < 8 | 108 | CCCCCCOC(=O)COc1ccc(F)c(C(N)=O)c1F [Example 89, Hexyl 2-[3-(aminocarbonyl)-2,4-difluorophenoxy]acetate]
16 to 64 (≈ 50.7 to 203 µM) | < 8 | 53 to 55 | CCCCOC(=O)CCCOc1ccc(F)c(C(N)=O)c1F [Example 181, Butyl 4-[3-(aminocarbonyl)-2,4-difluorophenoxy]butanoate]
> 64 | > 64 | 122 to 123 | NC(=O)c1cccc(OCc2cccc(O)c2)c1 [Example 173, 3-[(3-Hydroxybenzyl)oxy]benzenecarboxamide]
< 8 | < 8 | 82 to 83 | C#CCCCCCCCOc1cccc(C(N)=O)c1 [Example 65, 3-(8-Nonynyloxy)benzenecarboxamide]
